The target in the assay is Elastase (Pseudomonas aeruginosa (strain ATCC 15692 / PAO1 / 1C / PRS 101 / LMG12228), UniProt P14756). As to the kind of experiment: Inhibition of Pseudomonas aeruginosa LasB by fluorimetric assay in buffer of pH 7.2.

Here are results for 90 molecules from ChEMBL document CHEMBL1154297, “Inhibitor profiling of the Pseudomonas aeruginosa virulence factor LasB using N-alpha mercaptoamide template-based inhibitors” (Bioorg Med Chem Lett, 2009).

Elastase, sequence (P14756 whole entry): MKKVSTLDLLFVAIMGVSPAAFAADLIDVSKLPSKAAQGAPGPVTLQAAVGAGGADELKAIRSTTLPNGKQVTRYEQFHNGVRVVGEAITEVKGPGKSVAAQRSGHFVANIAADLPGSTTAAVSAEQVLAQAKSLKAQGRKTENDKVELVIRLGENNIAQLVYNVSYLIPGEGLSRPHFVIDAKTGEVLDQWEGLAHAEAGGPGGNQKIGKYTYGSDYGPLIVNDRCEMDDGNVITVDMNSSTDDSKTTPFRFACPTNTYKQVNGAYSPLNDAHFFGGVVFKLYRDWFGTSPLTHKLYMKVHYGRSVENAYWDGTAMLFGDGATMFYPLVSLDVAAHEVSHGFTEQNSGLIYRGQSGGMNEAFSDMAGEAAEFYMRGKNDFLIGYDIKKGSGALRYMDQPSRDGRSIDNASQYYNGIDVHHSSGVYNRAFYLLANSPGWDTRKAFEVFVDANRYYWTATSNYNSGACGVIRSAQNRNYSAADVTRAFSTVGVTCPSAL

Take `CC(C)C[C@H](NC(=O)[C@H](CCC(N)=O)NC(=O)CS)C(N)=O`: the Ki (read-out: Ki) amounted to 540 µM. The same measure, in the same setting: in the case of `CC[C@@H](C)[C@H](NC(=O)CS)C(=O)N[C@@H](CC(=O)O)C(N)=O` it was 142 µM; in that of `NC(=O)[C@H](CCCN=C(N)N)NC(=O)[C@H](Cc1ccc(O)cc1)NC(=O)CS`, 3 µM. On to `CC(C)C[C@H](NC(=O)[C@@H](NC(=O)CS)[C@@H](C)O)C(N)=O`, for which the Ki result is reported as “Not Active”. Turning to `NCCCC[C@H](NC(=O)[C@H](CCC(=O)O)NC(=O)CS)C(N)=O`, the Ki (read-out: Ki) is 553 µM. On the same count and under the same terms, in the case of `CC(C)C[C@H](NC(=O)[C@H](CC(=O)O)NC(=O)CS)C(N)=O` it was 118 µM. On the same count and under the same terms, the figure for `CSCC[C@H](NC(=O)CS)C(=O)N[C@@H](CCCCN)C(N)=O` is 3.9 µM. As for `CC(C)[C@H](NC(=O)[C@H](CC(N)=O)NC(=O)CS)C(N)=O`, for the setting “read-out: Ki”, the Ki is 180 µM. Take `N=C(N)NCCC[C@H](NC(=O)[C@H](CCCCN)NC(=O)CS)C(N)=O`: the Ki entry is on record as “Not Active”. For `CC(C)[C@H](NC(=O)[C@@H](NC(=O)CS)[C@@H](C)O)C(N)=O`, under “read-out: Ki”, the Ki is 377 µM. Same read-out and setting: in the case of `CC(C)[C@H](NC(=O)CS)C(=O)N[C@@H](CCCCN)C(N)=O` it was 22 µM.

In the case of `NCCCC[C@H](NC(=O)[C@H](CO)NC(=O)CS)C(N)=O`, the Ki result is listed as “Not Active”. On the same count and under the same terms, the entry for `NC(=O)[C@H](CC(=O)O)NC(=O)[C@@H]1CCCN1C(=O)CS` is “Not Active”; for `NC(=O)[C@H](Cc1ccccc1)NC(=O)[C@@H]1CCCN1C(=O)CS` it is “Not Active”; for `CSCC[C@H](NC(=O)CS)C(=O)N[C@@H](CC(C)C)C(N)=O` it is “Not Active”. For the molecule `NCCCC[C@H](NC(=O)[C@H](Cc1c[nH]cn1)NC(=O)CS)C(N)=O`, the Ki (read-out: Ki) was 332 µM. On the same count and under the same terms, the figure for `CSCC[C@H](NC(=O)CS)C(=O)N[C@@H](Cc1c[nH]c2ccccc12)C(N)=O` is 204 µM; for `NC(=O)[C@H](CC(=O)O)NC(=O)[C@H](Cc1ccc(O)cc1)NC(=O)CS` it is 5.5 µM; for `N=C(N)NCCC[C@H](NC(=O)[C@H](CS)NC(=O)CS)C(N)=O` it is 646 µM. The same measure, in the same setting: in the case of `NC(=O)C[C@H](NC(=O)CS)C(=O)N[C@@H](Cc1c[nH]c2ccccc12)C(N)=O` it was 70 µM. On the same count and under the same terms, in the case of `CC[C@@H](C)[C@H](NC(=O)CS)C(=O)N[C@H](C(N)=O)C(C)C` it was 1.8 µM.

For `CC(C)C[C@H](NC(=O)[C@H](Cc1c[nH]c2ccccc12)NC(=O)CS)C(N)=O`, the Ki (read-out: Ki) was 3.7 µM. Still for that read-out and setting: in the case of `NC(=O)[C@H](CCCN=C(N)N)NC(=O)[C@H](CC(=O)O)NC(=O)CS` it was 551 µM. As to `C[C@@H](O)[C@H](NC(=O)CS)C(=O)N[C@@H](CC(=O)O)C(N)=O`, the Ki entry is “Not Active”. As for `NCCCC[C@H](NC(=O)[C@H](CCC(N)=O)NC(=O)CS)C(N)=O`, the Ki (read-out: Ki) came to 380 µM. Still for that read-out and setting: the figure for `NC(=O)[C@H](CCCN=C(N)N)NC(=O)[C@H](Cc1c[nH]c2ccccc12)NC(=O)CS` is 25 µM; for `NC(=O)[C@H](Cc1c[nH]c2ccccc12)NC(=O)[C@H](CS)NC(=O)CS` it is 108 µM. Still for that read-out and setting: in the case of `CC(C)[C@H](NC(=O)CS)C(=O)N[C@@H](CCCN=C(N)N)C(N)=O` it was 69 µM; in that of `CSCC[C@H](NC(=O)CS)C(=O)N[C@@H](CC(=O)O)C(N)=O`, 7 µM; in that of `NC(=O)[C@H](Cc1c[nH]c2ccccc12)NC(=O)[C@H](Cc1ccc(O)cc1)NC(=O)CS`, 14 µM. Same read-out and setting: the figure for `C[C@@H](O)[C@H](NC(=O)CS)C(=O)N[C@@H](CCCN=C(N)N)C(N)=O` is 616 µM.

`CC(C)[C@H](NC(=O)[C@H](CC(=O)O)NC(=O)CS)C(N)=O`: the Ki result is listed as “Not Active”. Same read-out and setting: in the case of `CC(C)C[C@H](NC(=O)[C@H](CCCNC(=N)N)NC(=O)CS)C(N)=O` it was “Not Active”. As to `CC[C@@H](C)[C@H](NC(=O)CS)C(=O)N[C@@H](CCCCN)C(N)=O`, the Ki (read-out: Ki) was found to be 190 µM. The same measure, in the same setting: the figure for `CC(C)C[C@H](NC(=O)CS)C(=O)N[C@@H](CC(=O)O)C(N)=O` is 587 µM. For `NC(=O)[C@H](Cc1ccccc1)NC(=O)[C@H](CC(=O)O)NC(=O)CS`, the Ki entry is listed as “Not Active”. In the case of `NC(=O)[C@H](Cc1ccccc1)NC(=O)[C@H](CCC(=O)O)NC(=O)CS`, for the setting “read-out: Ki”, the Ki is 146 µM. Same read-out and setting: the figure for `NC(=O)[C@H](Cc1c[nH]c2ccccc12)NC(=O)[C@H](Cc1cnc[nH]1)NC(=O)CS` is 18 µM. Take `CC(C)[C@H](NC(=O)[C@H](Cc1ccc(O)cc1)NC(=O)CS)C(N)=O`: the Ki (read-out: Ki) amounted to 0.77 µM.

Take `NC(=O)[C@H](CC(=O)O)NC(=O)[C@H](Cc1c[nH]c2ccccc12)NC(=O)CS`: the Ki (read-out: Ki) turned out to be 38 µM. Same read-out and setting: the figure for `NCCCC[C@H](NC(=O)CNC(=O)CS)C(N)=O` is 451 µM.

Regarding `NC(=O)[C@H](CC(=O)O)NC(=O)[C@H](CO)NC(=O)CS`, the Ki result was “Not Active”.

Take `NC(=O)[C@H](CC(=O)O)NC(=O)[C@H](Cc1c[nH]cn1)NC(=O)CS`: the Ki entry is “Not Active”. Regarding `CC(C)[C@H](NC(=O)[C@H](C)NC(=O)CS)C(N)=O`, under “read-out: Ki”, the Ki came to 51 µM.

Regarding `NC(=O)[C@H](CCCN=C(N)N)NC(=O)CNC(=O)CS`, the Ki (read-out: Ki) was 641 µM. On to `CC(C)C[C@H](NC(=O)CS)C(=O)N[C@H](C(N)=O)C(C)C`, for which the Ki entry was “Not Active”. On to `NCCCC[C@H](NC(=O)[C@H](CC(=O)O)NC(=O)CS)C(N)=O`, for which the Ki (read-out: Ki) amounted to 491 µM.

Regarding `NC(=O)[C@H](Cc1c[nH]c2ccccc12)NC(=O)[C@H](CC(=O)O)NC(=O)CS`, the Ki (read-out: Ki) was 207 µM.

Turning to `CC(C)C[C@H](NC(=O)[C@@H](NC(=O)CS)C(C)C)C(N)=O`, the Ki (read-out: Ki) worked out at 69 µM. Same read-out and setting: in the case of `CSCC[C@H](NC(=O)CS)C(=O)N[C@H](C(N)=O)C(C)C` it was 98 µM; in that of `CC(C)[C@H](NC(=O)[C@@H](NC(=O)CS)C(C)C)C(N)=O`, 10 µM; in that of `N=C(N)NCCC[C@H](NC(=O)[C@@H]1CCCN1C(=O)CS)C(N)=O`, 56 µM. The same measure, in the same setting: the figure for `CC(C)C[C@H](NC(=O)[C@H](CCCCN)NC(=O)CS)C(N)=O` is 123 µM. `CC(C)[C@H](NC(=O)[C@H](CCCNC(=N)N)NC(=O)CS)C(N)=O`: the Ki entry was “Not Active”. The same measure, in the same setting: in the case of `CC[C@@H](C)[C@H](NC(=O)CS)C(=O)N[C@@H](CCCNC(=N)N)C(N)=O` it was “Not Active”. In the case of `CC(C)[C@H](NC(=O)CS)C(=O)N[C@@H](Cc1ccccc1)C(N)=O`, the Ki (read-out: Ki) is 72 µM. Still for that read-out and setting: in the case of `CC(C)[C@H](NC(=O)[C@H](CS)NC(=O)CS)C(N)=O` it was 161 µM. With `NC(=O)[C@H](CC(=O)O)NC(=O)[C@H](CCC(=O)O)NC(=O)CS`, the Ki entry was “Not Active”.

Regarding `N=C(N)NCCC[C@H](NC(=O)[C@H](CCCNC(=N)N)NC(=O)CS)C(N)=O`, the Ki result was “Not Active”.

`NCCCC[C@H](NC(=O)CS)C(=O)N[C@@H](Cc1c[nH]c2ccccc12)C(N)=O`: the Ki result is “Not Active”. In the case of `NCCCC[C@H](NC(=O)[C@H](Cc1ccc(O)cc1)NC(=O)CS)C(N)=O`, for the setting “read-out: Ki”, the inhibitory constant (Ki) amounted to 8.5 µM. On to `CC(C)[C@H](NC(=O)[C@H](Cc1ccccc1)NC(=O)CS)C(N)=O`, for which, under “read-out: Ki”, the Ki amounted to 11 µM. The same measure, in the same setting: the figure for `NC(=O)[C@H](Cc1c[nH]c2ccccc12)NC(=O)CNC(=O)CS` is 122 µM.

In the case of `CC(C)C[C@H](NC(=O)[C@H](Cc1c[nH]cn1)NC(=O)CS)C(N)=O`, the Ki (read-out: Ki) was found to be 306 µM. Consider `NC(=O)[C@H](CC(=O)O)NC(=O)[C@H](CC(=O)O)NC(=O)CS`, for which the Ki entry is “Not Active”.

On to `NC(=O)C[C@H](NC(=O)CS)C(=O)N[C@@H](CC(=O)O)C(N)=O`, for which the Ki entry is “Not Active”. As to `CC(C)C[C@H](NC(=O)[C@H](CC(N)=O)NC(=O)CS)C(N)=O`, the Ki (read-out: Ki) stood at 508 µM. On the same count and under the same terms, in the case of `NC(=O)[C@H](Cc1ccccc1)NC(=O)CNC(=O)CS` it was 51 µM.

Consider `NC(=O)[C@H](Cc1ccccc1)NC(=O)[C@H](Cc1cnc[nH]1)NC(=O)CS`, for which the Ki (read-out: Ki) stood at 21 µM. On the same count and under the same terms, the figure for `CC(C)C[C@H](NC(=O)CNC(=O)CS)C(N)=O` is 138 µM.

Take `CC(C)[C@H](NC(=O)CS)C(=O)N[C@@H](Cc1c[nH]c2ccccc12)C(N)=O`: the Ki entry was “Not Active”.

For `NCCCC[C@H](NC(=O)[C@H](CC(N)=O)NC(=O)CS)C(N)=O`, the Ki (read-out: Ki) came to 289 µM. The same measure, in the same setting: the figure for `C[C@H](NC(=O)CS)C(=O)N[C@@H](Cc1c[nH]c2ccccc12)C(N)=O` is 395 µM; for `NC(=O)[C@H](Cc1ccccc1)NC(=O)[C@H](Cc1ccccc1)NC(=O)CS` it is 146 µM. For `NC(=O)CC[C@H](NC(=O)CS)C(=O)N[C@@H](Cc1ccccc1)C(N)=O`, the Ki entry is given as “Not Active”. Take `CC(C)C[C@H](NC(=O)CS)C(=O)N[C@@H](Cc1ccccc1)C(N)=O`: the Ki (read-out: Ki) was determined as 113 µM. For the molecule `NC(=O)[C@H](Cc1c[nH]c2ccccc12)NC(=O)[C@H](CCC(=O)O)NC(=O)CS`, the Ki (read-out: Ki) was determined as 704 µM. The same measure, in the same setting: in the case of `NCCCC[C@H](NC(=O)[C@H](CCCCN)NC(=O)CS)C(N)=O` it was 433 µM. As for `NC(=O)[C@H](CC(=O)O)NC(=O)[C@H](Cc1ccccc1)NC(=O)CS`, the Ki entry is “Not Active”.

In the case of `CC(C)C[C@H](NC(=O)[C@H](CC(C)C)NC(=O)CS)C(N)=O`, the Ki (read-out: Ki) is 53 µM.

With `CC(C)C[C@H](NC(=O)CS)C(=O)N[C@@H](CCCCN)C(N)=O`, for the setting “read-out: Ki”, the Ki was 14 µM.

Turning to `C[C@@H](O)[C@H](NC(=O)CS)C(=O)N[C@@H](Cc1c[nH]c2ccccc12)C(N)=O`, the Ki (read-out: Ki) stood at 65 µM.

Take `NCCCC[C@H](NC(=O)[C@@H]1CCCN1C(=O)CS)C(N)=O`: for the setting “read-out: Ki”, the Ki was determined as 766 µM. As for `CC(C)[C@H](NC(=O)CS)C(=O)N[C@@H](CC(=O)O)C(N)=O`, the Ki entry is reported as “Not Active”. Same read-out and setting: in the case of `NC(=O)[C@H](CC(=O)O)NC(=O)[C@H](CS)NC(=O)CS` it was “Not Active”. The same measure, in the same setting: the entry for `NC(=O)[C@H](CC(=O)O)NC(=O)CNC(=O)CS` is “Not Active”. On to `CC(C)C[C@H](NC(=O)CS)C(=O)N[C@@H](Cc1c[nH]c2ccccc12)C(N)=O`, for which, for the setting “read-out: Ki”, the Ki amounted to 300 µM. The same measure, in the same setting: in the case of `C[C@H](NC(=O)CS)C(=O)N[C@@H](CC(=O)O)C(N)=O` it was 316 µM; in that of `CC(C)C[C@H](NC(=O)[C@@H]1CCCN1C(=O)CS)C(N)=O`, 246 µM; in that of `CC(C)C[C@H](NC(=O)[C@H](Cc1ccc(O)cc1)NC(=O)CS)C(N)=O`, 33 µM.

The term Ki denotes a measure of affinity in units of concentration, obtained from inhibition or displacement.
